{"source": "patent US9439431B2", "about": "“Pesticidal mixtures comprising isoxazoline derivatives” (Syngenta Participations AG, priority 2011, dated 2016)", "assay_type_in_all_cases": "cell-based", "key": {"Septoria tritici": {"tested_on": "Septoria tritici", "assay": "Septoria tritici (leaf blotch) growth inhibition in nutrient broth (microtiter plate, photometric)", "settings": "72 hours", "procedure": "(§1) Conidia of the fungus from cryogenic storage were directly mixed into nutrient broth (potato dextrose broth). After placing a (DMSO) solution of the test compounds into a microtiter plate (96-well format) the nutrient broth containing the fungal spores was added. The test plates were incubated at 24° C. and the inhibition of growth was determined photometrically after 72 hours. Two replicates per treatment were evaluated."}, "Gaeumannomyces graminis": {"tested_on": "Gaeumannomyces graminis", "assay": "Gaeumannomyces graminis growth inhibition in nutrient broth (microtiter plate, photometric)", "settings": "48 hours", "procedure": "as §1, with “Mycelial fragments” for “Conidia”, “48 hours at 620 nm.” for “72 hours.”"}, "[1]": {"tested_on": "Mycosphaerella arachidis (syn. Cercospora arachidicola)", "assay": "Mycosphaerella arachidis (syn. Cercospora arachidicola) growth inhibition in nutrient broth (microtiter plate, photometric)", "settings": "approximately 5-6 days", "procedure": "as §1, with “Brown leaf spot of groundnut (peanut): Conidia” for “Conidia”, “approximately 5-6 days at 620 nm.” for “72 hours.”, “evaluated” for “evaluated.”"}}, "data": [{"smiles": "CC(C1CC1)C(O)(Cn1cncn1)c1ccc(Cl)cc1", "note": "(centres unmarked) [cypropconazole, Cyproconazole]", "values": [{"measurement": "Observed control %", "setting": "Septoria tritici; cypropconazole 0.0625 ppm alone", "value": 0.0, "unit": "%"}, {"measurement": "Observed control %", "setting": "Septoria tritici; cypropconazole 0.1250 ppm alone", "value": 0.0, "unit": "%"}, {"measurement": "Observed control %", "setting": "Septoria tritici; cypropconazole 0.2500 ppm alone", "value": 0.0, "unit": "%"}, {"measurement": "Observed control %", "setting": "Septoria tritici; cypropconazole 0.5000 ppm alone", "value": 70.0, "unit": "%"}, {"measurement": "Observed control %", "setting": "Septoria tritici; cypropconazole 1.0000 ppm alone", "value": 90.0, "unit": "%"}, {"measurement": "Observed control %", "setting": "Septoria tritici; cypropconazole 2.0000 ppm alone", "value": 90.0, "unit": "%"}]}, {"smiles": "CO/C=C(/C(=O)OC)c1ccccc1Oc1cc(Oc2ccccc2C#N)ncn1", "note": "[azoxystrobin, Azoxystrobin]", "values": [{"measurement": "Observed control %", "setting": "Gaeumannomyces graminis; azoxystrobin 0.0625 ppm alone", "value": 0.0, "unit": "%"}, {"measurement": "Observed control %", "setting": "Gaeumannomyces graminis; azoxystrobin 0.1250 ppm alone", "value": 20.0, "unit": "%"}, {"measurement": "Observed control %", "setting": "Gaeumannomyces graminis; azoxystrobin 0.2500 ppm alone", "value": 20.0, "unit": "%"}, {"measurement": "Observed control %", "setting": "Gaeumannomyces graminis; azoxystrobin 0.5000 ppm alone", "value": 50.0, "unit": "%"}, {"measurement": "Observed control %", "setting": "Gaeumannomyces graminis; azoxystrobin 1.0000 ppm alone", "value": 50.0, "unit": "%"}, {"measurement": "Observed control %", "setting": "Gaeumannomyces graminis; azoxystrobin 2.0000 ppm alone", "value": 50.0, "unit": "%"}]}, {"smiles": "Cn1cc(C(=O)Nc2cccc3c2C2CCC3C2=C(Cl)Cl)c(C(F)F)n1", "note": "(centres unmarked) [C-IIIA]", "values": [{"measurement": "Observed control %", "setting": "[1]; C-IIIA 0.0156 ppm alone", "value": 20.0, "unit": "%"}, {"measurement": "Observed control %", "setting": "[1]; C-IIIA 0.0313 ppm alone", "value": 90.0, "unit": "%"}]}]}
